The source made the active and inactive calls. The calls are words filed in the database; no cut-off is given here.

A short description of data set [1]: Cytotoxicity against human HMC1 cells assessed induction of morphological changes at 50 uM. The settings on record: hmc1, 50 µM.
The nature of data set [2]: Cytotoxicity against human HMC1 cells assessed induction of cell death at 50 uM. The settings on record: hmc1, 50 µM. Format: cell-based.
Data set [3] deals with HMC1. The experiment in a line: Inhibition of FCepsilonRI gamma subunit mRNA expression in human HMC1 cells at 50 uM after 36 hrs by RT-PCR analysis. Format: functional, cell-based.
For data set [4], the system named is HMC1. The data set can be described thus: Inhibition of FCepsilonRI alpha subunit mRNA expression in human HMC1 cells at 50 uM after 36 hrs by RT-PCR analysis. Type of data set: functional, cell-based.
Data set [5] has as its system HMC1. The experiment in a line: Inhibition of FCepsilonRI beta subunit mRNA expression in human HMC1 cells at 50 uM after 36 hrs by RT-PCR analysis. Format: functional, cell-based.
Data set [6] deals with HMC1. The experiment in a line: Inhibition of FCepsilonRI expression in human HMC1 cells at 100 uM after 72 hrs by flow cytometry. Format: functional, cell-based.
Data set [7] concerns HMC1. The experiment in a line: Inhibition of FCepsilonRI expression in human HMC1 cells at 50 to 100 uM after 72 hrs by flow cytometry. Type of data set: functional, cell-based.

In the case of `Oc1cc(O)c2cc(O)c(-c3ccc(O)c(O)c3)[o+]c2c1` [CYANIDIN], in data set [1], the Activity result is reported as “Toxic”.

Consider `O=c1cc(-c2ccc(O)cc2)oc2cc(O)c(O)c(O)c12` [SCUTELLAREIN], for which the Activity result in data set [2] is given as “Toxic”.

With `O=c1cc(-c2ccccc2)oc2cc(O)c(O)c(O)c12` [BAICALEIN], in data set [1], the Activity result is on record as “Toxic”.

Regarding `COc1cc(-c2[o+]c3cc(O)cc(O)c3cc2O)cc(OC)c1O` [MALVIDIN], the Activity result in data set [1] is “Toxic”.

Take `COc1c(O)cc(O)c2c(=O)cc(-c3ccccc3)oc12` [WOGONIN]: the Activity entry in data set [1] was “Toxic”.

For `O=c1cc(-c2ccc(O)c(O)c2)oc2cc(O)cc(O)c12` [LUTEOLIN], the Activity entry in data set [1] is recorded as “Toxic”.

With `O=c1cc(-c2ccc(O)cc2)oc2cc(O)cc(O)c12` [APIGENIN], the Activity entry in data set [1] is reported as “Toxic”.

For the compound `O=C(O[C@@H]1Cc2c(O)cc(O)cc2O[C@@H]1c1cc(O)c(O)c(O)c1)c1cc(O)c(O)c(O)c1`, the inhibition entry in data set [3] is “Active”. Moreover, the inhibition entry in data set [4] and in data set [5] was “inactive” each time.

In the case of `COc1cc([C@H]2Oc3cc(O)cc(O)c3C[C@H]2OC(=O)c2cc(O)c(O)c(O)c2)cc(O)c1O`, the inhibition entry in data set [6] and in data set [7] was “inactive” throughout.

Turning to `O=C(O[C@@H]1Cc2c(O)cc(O)cc2O[C@H]1c1cc(O)c(O)c(O)c1)c1cc(O)c(O)c(O)c1`, the inhibition result in data set [6] is “Active”.

For `O=C(O[C@@H]1Cc2c(O)cc(O)cc2O[C@@H]1c1ccc(O)c(O)c1)c1cc(O)c(O)c(O)c1`, the inhibition result in data set [6] is “Active”.

As for `Oc1cc(O)c2c(c1)O[C@H](c1ccc(O)c(O)c1)[C@H](O)C2`, in data set [6], the inhibition result was “Active”.

Take `O=c1cc(-c2ccccc2)oc2c(O)c(O)cc(O)c12` [NORWOGONIN]: the Activity result in data set [2] was “Toxic”.

Turning to `COc1c(O)cc([C@H]2Oc3cc(O)cc(O)c3C[C@H]2OC(=O)c2cc(O)c(O)c(O)c2)cc1O`, the inhibition entry in data set [6] and in data set [7] was “inactive” in each case.

Regarding `O=c1cc(-c2ccc(O)c(O)c2)oc2c([C@@H]3O[C@H](CO)[C@@H](O)[C@H](O)[C@H]3O)c(O)cc(O)c12` [ORIENTIN], the Activity entry in data set [1] is listed as “Toxic”.

`COc1c(O)cc(C(=O)O[C@@H]2Cc3c(O)cc(O)cc3O[C@@H]2c2cc(O)c(O)c(O)c2)cc1O`: the inhibition entry in data set [6] and in data set [7] was “inactive” in each case.

On to `O=c1cc(-c2cc(O)c(O)c(O)c2)oc2cc(O)cc(O)c12`, for which the inhibition result in data set [7] was “Active”.

Turning to `Oc1cc(O)c2cc(O)c(-c3cc(O)c(O)c(O)c3)[o+]c2c1`, the inhibition result in data set [7] is “Active”.

For the compound `COc1cc(C(=O)O[C@@H]2Cc3c(O)cc(O)cc3O[C@@H]2c2cc(O)c(O)c(O)c2)cc(O)c1O`, the inhibition result in data set [6] and in data set [7] was “inactive” each time.

Values taken from ChEMBL document CHEMBL1156298, “New inhibitors for expression of IgE receptor on human mast cell” (Bioorg Med Chem Lett, 2010).
